Experimental data taken from patent US20100152274A1, “CRYSTALLINE FORMS OF ATORVASTATIN 4-(NITROOXY) BUTYL ESTER” (Nicox S.A., priority 2007, published 2010).
Entries after “also recorded” stand apart in the source; their conditions may differ.

Key:
Assay type in all cases: physicochemical
[1] = Stability at 40° C. and 75% of relative humidity, open vials, monitored by Raman spectroscopy and PXRD; conditions: for Stability in the reported conditions (heat and humidity): 40° C. and 75% r.h., summary statement; for Change of solid form by PXRD and Raman: open vials, 40° C., 75% relative humidity, after one and four weeks; for RESULTING FORM: Storage at 40° C. and 75% r.h., 28 d.
Description: Stability at 40° C. and 75% of relative humidity of atorvastatin 4-(nitrooxy)butyl ester A and form B in comparison with the amorphous form was assessed. Atorvastatin 4-(nitrooxy)butyl ester form A, form B and amorphous were stored in open vials for one month at 40° C. and in presence of 75% of relative humidity, and the samples were monitored by Raman spectroscopy and by PXRD after one and four weeks.

[2] = Stability of amorphous form in aqueous suspension at room temperature, monitored by Raman spectroscopy and PXRD; conditions: for RESULTING FORM: Suspension in H2O, rt
Description: Stability of amorphous atorvastatin 4-(nitrooxy)butyl ester in aqueous suspension was assessed. Amorphous atorvastatin 4-(nitrooxy)butyl ester was suspended in water at room temperature while stirring and monitored by Raman spectroscopy after one, seven and twenty-eight days.

[3] = General stability statements (humidity, water, organic solvents, heat); conditions: no test details

SMILES	Stability in the reported conditions (heat and humidity) ([1]; listed as Amorphous form)	Change of solid form by PXRD and Raman ([1]; listed as amorphous atorvastatin 4-(nitrooxy)butyl ester)	RESULTING FORM ([2]; 1 d.)	RESULTING FORM ([2]; 1 d., listed as Amorphous atorvastatin 4-(nitrooxy)butyl ester)	RESULTING FORM ([2]; 7 d.)	RESULTING FORM ([2]; 7 d., listed as Amorphous atorvastatin 4-(nitrooxy)butyl ester)	RESULTING FORM ([2]; 28 d.)	RESULTING FORM ([2]; 28 d., listed as Amorphous atorvastatin 4-(nitrooxy)butyl ester)	Stability in aqueous suspension ([2]; room temperature, summary statement)	Stability (general statement) ([3]; listed as amorphous form of Atorvastatin 4-(nitrooxy)butyl ester)	Stability in the reported conditions (heat and humidity) [1]	RESULTING FORM [1]	Change of solid form by PXRD and Raman [1]	Stability (general statement) [3]
CC(C)c1c(C(=O)Nc2ccccc2)c(-c2ccccc2)c(-c2ccc(F)cc2)n1CC[C@@H](O)C[C@@H](O)CC(=O)OCCCCO[N+](=O)[O-] [Amorphous, atorvastatin 4-(nitrooxy)butyl ester]	not stable, showing rapid conversion to form B	converts to form B	Amorphous	pure amorphous	Amorphous (+B)	detectable amount of form B was observed; also recorded: start of crystallization of form B	Amorphous + B	mixture of amorphous form and form B	not stable in aqueous suspension at room temperature	unstable at humidity conditions, in organic solvents and in stressed thermal conditions				
CC(C)c1c(C(=O)Nc2ccccc2)c(-c2ccccc2)c(-c2ccc(F)cc2)n1CC[C@@H](O)C[C@@H](O)CC(=O)OCCCCO[N+](=O)[O-] [Form A, (βR,δR)-2(4-fluorophenyl)-β,δ-dihydroxy-5-(1-methylethyl)-3-phenyl-4-[(phenylamino)carbon-yl]-1H-pyrrole-1-heptanoic acid 4-(nitrooxy)butyl ester]											stable in the reported conditions for at least four weeks	Form A	no differences in the solid form	good stability in water, in organic solvents, and when exposed to heat and humidity
CC(C)c1c(C(=O)Nc2ccccc2)c(-c2ccccc2)c(-c2ccc(F)cc2)n1CC[C@@H](O)C[C@@H](O)CC(=O)OCCCCO[N+](=O)[O-] [Form B, (βR,δR)-2(4-fluorophenyl)-β,δ-dihydroxy-5-(1-methylethyl)-3-phenyl-4-[(phenylamino)carbon-yl]-1H-pyrrole-1-heptanoic acid 4-(nitrooxy)butyl ester]											stable in the reported conditions for at least four weeks	Form B	no differences in the solid form	good stability in water, in organic solvents, and when exposed to heat and humidity
